Here are results for eight molecules from PubChem BioAssay (NCI).

Some test systems named below: M14 melanoma; UO-31 renal; SN12C renal; SK-MEL-2 melanoma; MDA-N; HT29 colon; NCI-H23 lung; TK-10 renal; UACC-62 melanoma; BT-549 breast; RPMI-8226 leukemia; PC-3 prostate; OVCAR-8 ovarian; HCT-15 colon; LOX IMVI melanoma; HS 578T breast; SR leukemia.
Experiment in all cases: NCI tumour cell line growth inhibition, 48 h

Molecules are shown by their SMILES.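 Values below derive from 48-hour exposures of cells grown in 96-well plates, with endpoints linearly interpolated between the two concentrations bracketing the appropriate inhibition level. The concentration for full growth arrest is given as TGI.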

For `CCO[C@H]1C[C@@H](c2ccccc2)[C@]2(C)C[C@H](C(=O)OC)ON2O1`, the TGI in the test with M14 melanoma, in the test on UO-31 renal, in the test with SN12C renal, in the test with SK-MEL-2 melanoma, with MDA-N and with HT29 colon was more than 100 µM throughout. Further, the TGI in the test with NCI-H23 lung, with TK-10 renal, with UACC-62 melanoma, in the test on BT-549 breast, with RPMI-8226 leukemia and in the test on PC-3 prostate was more than 100 µM throughout. Also, the TGI in the test with OVCAR-8 ovarian, in the test with HCT-15 colon, in the test with LOX IMVI melanoma and in the test with HS 578T breast was more than 100 µM in each case.

`CC1(C)OC2CN(C(=O)OCc3ccccc3)C(CO)C2O1` (stereo unspecified): the TGI in the test on M14 melanoma, with UO-31 renal, with SN12C renal, with SK-MEL-2 melanoma, in the test on MDA-N and in the test on HT29 colon was more than 100 µM in each case. The TGI in the test on NCI-H23 lung, in the test with TK-10 renal, with UACC-62 melanoma, in the test with BT-549 breast, with RPMI-8226 leukemia and in the test on PC-3 prostate was more than 100 µM in each case. Moreover, the TGI in the test on OVCAR-8 ovarian, in the test on HCT-15 colon, with LOX IMVI melanoma and with HS 578T breast was more than 100 µM throughout.

Consider `CSCCCNC(=O)c1csc([C@@H](CSC)NC(=O)CCNC(=O)[C@@H](NC(=O)OCC(Br)(Br)Br)C(C)O)n1` (stereo partly specified), for which the TGI with M14 melanoma, in the test with UO-31 renal, with SR leukemia, with SN12C renal, in the test with SK-MEL-2 melanoma and with MDA-N was more than 100 µM each time. Also, the TGI in the test with HT29 colon, with NCI-H23 lung, with TK-10 renal, in the test on UACC-62 melanoma, in the test with BT-549 breast and in the test with PC-3 prostate was more than 100 µM in each case. Besides, the TGI in the test on OVCAR-8 ovarian, in the test with HCT-15 colon, in the test on LOX IMVI melanoma and with HS 578T breast was more than 100 µM in each case.

For `CC1(C)SC2C(NC(=O)Cc3ccccc3)C(=O)N2C1C(=O)O` (stereo unspecified), the TGI with M14 melanoma, with UO-31 renal, in the test with SR leukemia, in the test with SN12C renal, in the test with SK-MEL-2 melanoma and with MDA-N was more than 100 µM each time. For the same molecule, the TGI in the test on HT29 colon, in the test with NCI-H23 lung, in the test with TK-10 renal, in the test on UACC-62 melanoma, in the test on BT-549 breast and in the test with PC-3 prostate was more than 100 µM in each case. Also, the TGI in the test with OVCAR-8 ovarian, in the test with HCT-15 colon, in the test on LOX IMVI melanoma and in the test on HS 578T breast was more than 100 µM in each case.

As to `COc1ncc(C#CC(=O)c2ccccc2OC)c(OC)n1`, the TGI with M14 melanoma worked out at 5.05 µM; with UO-31 renal it was 2.97 µM; in the test with SN12C renal, 1.91 µM; with SK-MEL-2 melanoma, 6.4 µM; in the test on MDA-N, 3.41 µM; in the test on HT29 colon it was 3.84 µM. For the same molecule, the TGI was determined as 7.56 µM in the test with NCI-H23 lung; 2.62 µM in the test on TK-10 renal; 7.49 µM with UACC-62 melanoma; 5.21 µM in the test on BT-549 breast; 9.65 µM in the test on RPMI-8226 leukemia; 4.3 µM in the test with PC-3 prostate. For the same molecule, the TGI in the test on OVCAR-8 ovarian was 5.05 µM; in the test with HCT-15 colon, 2.08 µM; with LOX IMVI melanoma it was 0.794 µM; in the test with HS 578T breast, more than 32.4 µM.

With `Cc1ccc(-c2c(C#N)c(S)n(NS(=O)(=O)c3ccccc3)c(=O)c2C#N)cc1`, the TGI in the test on M14 melanoma is more than 100 µM; in the test on UO-31 renal, 51.4 µM; in the test on SR leukemia, 58.1 µM; in the test with SN12C renal, more than 100 µM; in the test with SK-MEL-2 melanoma it was more than 100 µM; in the test with MDA-N it was more than 100 µM. Moreover, the TGI is more than 100 µM in the test on NCI-H23 lung; 65.7 µM in the test on TK-10 renal; more than 100 µM in the test with UACC-62 melanoma; 73.3 µM with BT-549 breast; 77.4 µM in the test with RPMI-8226 leukemia; more than 100 µM in the test with PC-3 prostate. The values for the TGI in the test on OVCAR-8 ovarian, in the test on HCT-15 colon and with LOX IMVI melanoma were 55.9 µM, 50.5 µM and more than 100 µM, respectively.

On to `CC(=O)O/C(=C(/C#N)C(=O)O)C1C(C(=O)O)C(c2ccccc2[N+](=O)[O-])C=C(c2ccco2)N1c1ccncc1` (stereo unspecified), for which the TGI turned out to be 9.33 µM in the test on M14 melanoma; 7.53 µM with UO-31 renal; 10.2 µM in the test on SN12C renal; 22.2 µM in the test with SK-MEL-2 melanoma; 7.26 µM in the test with MDA-N; 3.16 µM with HT29 colon. Besides, the TGI with NCI-H23 lung amounted to 12.7 µM; in the test on TK-10 renal it was 11.3 µM; with UACC-62 melanoma, 17 µM; in the test on BT-549 breast it was 16.3 µM; with RPMI-8226 leukemia, 4.46 µM; with PC-3 prostate it was 18.4 µM. The TGI in the test with OVCAR-8 ovarian worked out at 14.6 µM; in the test on HCT-15 colon it was 4.83 µM; in the test with LOX IMVI melanoma it was 5.78 µM; in the test with HS 578T breast, 42 µM.

As for `O=C1NC(N/N=C/C(O)C(O)C(O)C(O)CO)=N/C1=C\c1cccs1` (stereo unspecified), the TGI in the test on M14 melanoma, in the test on SN12C renal, in the test on SK-MEL-2 melanoma, with MDA-N, in the test on HT29 colon and with NCI-H23 lung was more than 100 µM in each case. For the same molecule, the TGI with TK-10 renal, in the test with UACC-62 melanoma, in the test with BT-549 breast, in the test on RPMI-8226 leukemia, in the test on PC-3 prostate and with OVCAR-8 ovarian was more than 100 µM in each case. The TGI with HCT-15 colon, with LOX IMVI melanoma and in the test with HS 578T breast was more than 100 µM each time.
